Experimental data taken from article PMC7988117, “OMN6 a novel bioengineered peptide for the treatment of multidrug resistant Gram negative bacteria” (Scientific Reports, 2021).
Ends that are not written are not given here.

Experiments:
Acinetobacter baumannii = assay: VITEK 2 antimicrobial sensitivity characterization; assay type: cell-based; conditions: VITEK 2 system, CLSI ranges
Method: (§1) This experiment was conducted by Omnix Medical, by JMI Laboratories (North Liberty, IA, USA) and by Aptuit (Verona) S.r.l. (Italy), an Evotec Company. All studies were performed according to Clinical and Laboratory Standards Institute guidelines[30] for the application of the broth microdilution method. Reference strains from American Type Culture Collection (ATCC) and clinical isolates from the Evotec EvostrAIn and the JMI Laboratories SENTRY surveillance program culture collections (Acinetobacter baumannii: ACC 00445, ACC 00527, ACC 00535, ATCC 17978, ATCC 19606, ATCC BAA-1793, ACC 01076, ACC 01077, NCTC 13420, JMI #1088100 and JMI #1001007; Klebsiella pneumoniae: ATCC 43816 and ATCC BAA-1705; Escherichia coli: ACC 01001 and ATCC 25922; Staphylococcus aureus: ATCC 29213, ATCC BAA-44 and ATCC 33591; Bacillus cereus: ATCC 14579; Enterococcus faecalis: ATCC 29212; Enterococcus faecium: ATCC BAA-2319) were used. The antimicrobial activity of OMN6 was determined by 12 serial two-fold dilutions in water of the 100-fold highest compound solution; 1 µL of each well was transferred into 96 microtiter plates (final concentration: 256–0.12 µg/mL). In most strains, same procedure was used to determine the colistin antimicrobial activity (final concentration: 32–0.015 µg/mL). Bacterial strains were sub-cultured on the agar plates and incubated for 18–24 h at 35 ± 2 °C in ambient air. Following incubation, the inoculum was prepared from isolated colonies and adjusted to 0.5 McFarland turbidity standard (1 to 2 × 10^8 colony-forming units/mL) in 0.9% saline. Bacterial suspension was then diluted 1:200 in Muller-Hinton broth (from BD; Becton, Dickinson and Company, Franklin Lakes, NJ, USA) and within 15 min 100 µL/well were dispensed. Growth-control wells and sterility-check wells (uninoculated well) were present in each plate. Plates were incubated for 18–24 h at 35 ± 2 °C in ambient air. […] The antimicrobial activity to other antibiotics on most bacterial strains was determined by Evotec using the antimicrobial sensitive test from the VITEK 2 automated microbiology system (bioMérieux SA, Marcy l'Etoile, France; data presented in Table S1), or by ATCC according to CLSI (Clinical and Laboratory Standards Institute) guidelines[30]
(§2) Table S1. Supplementary information about the resistance pattern of 14 bacterial strains used in the Minimum Inhibitory Concentration study presented in Table 1. The resistance pattern of the different bacterial isolates was characterized by broth microdilution studies (for colistin) or with the VITEK 2 system (for the other antibiotics).

Escherichia coli = assay: VITEK 2 antimicrobial sensitivity characterization; assay type: cell-based; conditions: VITEK 2 system, CLSI ranges
Method: as §1, §2

Klebsiella pneumoniae = assay: VITEK 2 antimicrobial sensitivity characterization; assay type: cell-based; conditions: VITEK 2 system, CLSI ranges
Method: as §1, §2

A. baumannii BAA-1793 = conditions: determined by ATCC according to CLSI guidelines, ref ATCC; cited from earlier work; also: key: S, sensitive; I, intermediate; R, resistant
Source text: Supplement 41598_2021_86155_MOESM1_ESM.docx, table 3: Table S3. Supplementary information about the resistance pattern of the bacterial strain A. baumannii BAA-1793 used in the Minimum Inhibitory Concentration study presented in Table 1.

HEK293T cells = assay type: cell-based
Method: HEK-293T17 cells (ATCC CRL-1573) were purchased from ATCC and cultured to 80% confluency according to the ATCC culture method, using high-glucose and L-Glutamine Dulbecco's Modified Eagle Medium (DMEM) medium (ATCC catalog number 30-2002) supplemented with 10% fetal bovine serum and 1% Penicillin–Streptomycin solution (all from Biological Industries). For the experiment purposes, 30,000 cells were transferred to a 96-well plate (experiment plate) in a final volume of 100 µL of medium. The experiment plate was incubated at 5% CO2 and 37 °C for approximately 18 h. After 18 h, medium was discarded, and cells were co-incubated with OMN6, Melittin (Sigma-Aldrich) or dimethyl sulfoxide (DMSO; MP Biomedical LLC, Solon, OH, USA) that were prepared in new medium at desired concentrations. The experiment plate was incubated at 5% CO2 and 37 °C for 24 h. Then, glutaraldehyde at a final concentration of 0.5% was added in all wells for 10 min for cell fixation. After washing the plate 3 times with DDW, the experiment plate was dried overnight. Then, cells were washed with 0.1 M Borate buffer (pH = 8.5) for 1 min. 100 µL Methylene Blue diluted in the same Borate buffer was added to all wells for 1 h. Wells were washed with DDW and plate was dried overnight. Color extraction was executed by adding 0.1 M HCl. After an incubation at 37 °C for 1 h, cell survival was determined via absorbance at 620 nm using a microplate reader.

Staphylococcus aureus = assay: VITEK 2 antimicrobial sensitivity characterization; assay type: cell-based; conditions: VITEK 2 system, CLSI ranges; also: key: S, sensitive; I, intermediate; R, resistant
Method: as §1, §2

Proteinase-K = biological target: T1, Proteinase-K (Parengyodontium album, UniProt P06873); assay: Peptide stability to Proteinase-K (SDS-PAGE); assay type: in vitro ADME; conditions: 10 µg peptide with 5 or 20 ng Proteinase-K (0.16 or 0.66 µg/mL), 2 h, 37 °C; 15% acrylamide SDS-PAGE, Coomassie stain
T1 construct: purchased Sigma-Aldrich
Method: 10 µg of synthetic cecropin A (Genscript, Piscataway, NJ, USA), OMN6, or bovine serum albumin (BSA; Sigma-Aldrich, St. Louis, MO, USA) were incubated with 5 or 20 ng Proteinase-K (Sigma-Aldrich; final treatment concentration of 0.16 or 0.66 µg/mL respectively) for 2 h at 37 °C, and separated on a 15% acrylamide gel (Bio-Rad, Hercules, CA, USA) by SDS-PAGE. The gel was then stained with Coomassie dye and excess color was removed over-night.

T1 sequence (P06873 106-384): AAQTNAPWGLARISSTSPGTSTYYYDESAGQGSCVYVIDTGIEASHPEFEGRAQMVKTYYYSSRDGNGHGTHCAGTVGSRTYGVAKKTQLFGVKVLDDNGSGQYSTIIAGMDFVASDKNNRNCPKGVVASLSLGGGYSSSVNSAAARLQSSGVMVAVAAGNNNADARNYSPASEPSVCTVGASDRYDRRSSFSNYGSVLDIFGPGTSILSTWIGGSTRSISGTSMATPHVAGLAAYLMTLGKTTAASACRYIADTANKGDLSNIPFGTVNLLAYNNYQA

Compound	VITEK characterization (resistance range) (Acinetobacter baumannii; A. baumannii ACC 00445)	VITEK characterization (resistance range) (Acinetobacter baumannii; A. baumannii ACC 00527)	VITEK characterization (resistance range) (Acinetobacter baumannii; A. baumannii ACC 00535)	VITEK characterization (resistance range) (Acinetobacter baumannii; A. baumannii ATCC 17978)	VITEK characterization (resistance range) (Acinetobacter baumannii; A. baumannii ATCC 19606)	VITEK characterization (resistance range) (Escherichia coli; E. coli ACC 01001)	VITEK characterization (resistance range) (Escherichia coli; E. coli ATCC 25922)	VITEK characterization (resistance range) (Klebsiella pneumoniae; K. pneumoniae ATCC 43816)	VITEK characterization (resistance range) (Klebsiella pneumoniae; K. pneumoniae ATCC BAA-1705)	Resistance pattern (A. baumannii BAA-1793)	Cytotoxicity on HEK293T cells (HEK293T cells)	VITEK characterization (resistance range) (Acinetobacter baumannii; A. baumannii ACC 01076)	VITEK characterization (resistance range) (Acinetobacter baumannii; A. baumannii ACC 01077)	VITEK characterization (resistance range) (Acinetobacter baumannii; A. baumannii NCTC 13420)	VITEK characterization (resistance range) (Staphylococcus aureus; S. aureus ATCC 29213)	VITEK characterization (resistance range) (Staphylococcus aureus; S. aureus ATCC 33591)	Stability after exposure to Proteinase-K (Proteinase-K)
CC(C)(O/N=C(\C(=O)N[C@@H]1C(=O)N2C(C(=O)[O-])=C(C[n+]3ccccc3)CS[C@H]12)c1csc(N)n1)C(=O)O [CAZ, ceftazidime]	R	R	R	S	I	S	S	S	R	R	–	–	–	–	–	–	–
CO/N=C(\C(=O)N[C@@H]1C(=O)N2C(C(=O)O)=C(COC(C)=O)CS[C@H]12)c1csc(N)n1 [CTX, cefotaxime]	R	R	R	S	I	S	S	S	R	R	–	–	–	–	–	–	–
C[S+](C)[O-] [DMSO, dimethyl sulfoxide]	–	–	–	–	–	–	–	–	–	–	> 90%	–	–	–	–	–	–
C[C@@H](O)[C@H]1C(=O)N2C(C(=O)O)=C(SCCN=CN)C[C@H]12 [IMP, imipenem]	R	R	I	S	S	S	S	S	R	R	–	R	R	I	S	R	–
KWKLFKKIEKVGQNIRDGIIKAGPAVAVVGQATQIAK-NH2 [Cecropin A]	–	–	–	–	–	–	–	–	–	–	–	–	–	–	–	–	major degradation
